Data published in the supplement of paper PMC10307832.

Tests used:
Assay in all cases: relative viability (nuclei count vs DMSO), 5 days (fraction); higher = more cells survive
Dabrafenib = compound: CC(C)(C)c1nc(-c2cccc(NS(=O)(=O)c3c(F)cccc3F)c2F)c(-c2ccnc(N)n2)s1 [Dabrafenib]
In short: (§1)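 Five library-drug doses, separated by factors of √10, were pinned into 1536-well plates holding lung cancer cell lines after an overnight stay at 37 °C. Cells were fixed, permeabilised and Hoechst-stained in one step after 5 days without medium change, then imaged at 4×. Viability compares treated-well with vehicle-well nuclei, counted in MetaXpress, as a median across plates. Passing plates had control CV below 25% and at least one doubling.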

VX-702 = compound: NC(=O)c1ccc(N(C(N)=O)c2c(F)cccc2F)nc1-c1ccc(F)cc1F [VX-702]
In short: as §1

Dabrafenib + Alpelisib = compound: CC(C)(C)c1nc(-c2cccc(NS(=O)(=O)c3c(F)cccc3F)c2F)c(-c2ccnc(N)n2)s1 [Dabrafenib] + Cc1nc(NC(=O)N2CCC[C@H]2C(N)=O)sc1-c1ccnc(C(C)(C)C(F)(F)F)c1 [Alpelisib] (partner 2 µM)
In short: (§2)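 The day after seeding in 1536-well plates, lung cancer cell lines were treated by pin tool with a single drug, or with a fixed anchor-drug dose together with five library-drug doses (not always all listed) in √10 steps. After 5 days, a combined fix-and-stain solution (final 0.05% Triton X-100, 1% formaldehyde, 1 ug/ml Hoechst) was added. Nuclei counted on 4× images gave relative viability as treated counts over vehicle counts, reported as the median of duplicate plates.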

VX-702 + Pemetrexed = compound: NC(=O)c1ccc(N(C(N)=O)c2c(F)cccc2F)nc1-c1ccc(F)cc1F [VX-702] + Nc1nc2[nH]cc(CCc3ccc(C(=O)N[C@@H](CCC(=O)O)C(=O)O)cc3)c2c(=O)[nH]1 [Pemetrexed] (partner 0.2 µM)
In short: as §2

HCC-366 showed a relative viability (Dabrafenib; 0.003 µM) of 0.734, a relative viability (Dabrafenib; 0.009487 µM) of 1.04 and a relative viability (Dabrafenib; 0.03 µM) of 0.725. For the same cell line, the relative viability (Dabrafenib; 0.09487 µM) was 0.993, the relative viability (Dabrafenib; 0.3 µM) was 1.11 and the relative viability (VX-702; 0.02 µM) was 1.06. It also gave a relative viability (VX-702; 0.2 µM) of 0.969, a relative viability (VX-702; 0.6325 µM) of 0.98 and a relative viability (VX-702; 2 µM) of 0.587. It also gave a relative viability (Dabrafenib + Alpelisib; first compound 0.009487 µM) of 0.435, a relative viability (Dabrafenib + Alpelisib; first compound 0.03 µM) of 0.145 and a relative viability (Dabrafenib + Alpelisib; first compound 0.09487 µM) of 0.374. The relative viability (Dabrafenib + Alpelisib; first compound 0.3 µM) was 0.59, the relative viability (VX-702 + Pemetrexed; first compound 0.02 µM) was 0.171 and the relative viability (VX-702 + Pemetrexed; first compound 0.2 µM) was 0.149. For the same cell line, the relative viability (VX-702 + Pemetrexed; first compound 0.6325 µM) was 0.203 and the relative viability (VX-702 + Pemetrexed; first compound 2 µM) was 0.165.
HCC-827 showed a relative viability (Dabrafenib; 0.003 µM) of 0.916, a relative viability (Dabrafenib; 0.009487 µM) of 1.08 and a relative viability (Dabrafenib; 0.03 µM) of 0.996. The relative viability (Dabrafenib; 0.3 µM) was 1.02, the relative viability (VX-702; 0.02 µM) was 1.03 and the relative viability (VX-702; 0.2 µM) was 1.08. For the same cell line, the relative viability (VX-702; 0.6325 µM) was 1.09, the relative viability (VX-702; 2 µM) was 0.647 and the relative viability (Dabrafenib + Alpelisib; first compound 0.003 µM) was 0.895. For the same cell line, the relative viability (Dabrafenib + Alpelisib; first compound 0.009487 µM) was 0.967, the relative viability (Dabrafenib + Alpelisib; first compound 0.03 µM) was 0.778 and the relative viability (Dabrafenib + Alpelisib; first compound 0.09487 µM) was 0.793. It also gave a relative viability (Dabrafenib + Alpelisib; first compound 0.3 µM) of 0.963, a relative viability (VX-702 + Pemetrexed; first compound 0.02 µM) of 0.244 and a relative viability (VX-702 + Pemetrexed; first compound 0.2 µM) of 0.252. For the same cell line, the relative viability (VX-702 + Pemetrexed; first compound 0.6325 µM) was 0.287 and the relative viability (VX-702 + Pemetrexed; first compound 2 µM) was 0.18.
In the case of HOP-62, the relative viability (Dabrafenib; 0.003 µM) is reported as 0.778, the relative viability (Dabrafenib; 0.009487 µM) is reported as 1.02 and the relative viability (Dabrafenib; 0.03 µM) is reported as 1.03. For the same cell line, the relative viability (Dabrafenib; 0.09487 µM) was 0.685, the relative viability (Dabrafenib; 0.3 µM) was 0.812 and the relative viability (VX-702; 0.02 µM) was 1.06. The relative viability (VX-702; 0.2 µM) was 0.988, the relative viability (VX-702; 0.6325 µM) was 1.09 and the relative viability (VX-702; 2 µM) was 1.05. For the same cell line, the relative viability (Dabrafenib + Alpelisib; first compound 0.009487 µM) was 1, the relative viability (Dabrafenib + Alpelisib; first compound 0.03 µM) was 0.734 and the relative viability (Dabrafenib + Alpelisib; first compound 0.09487 µM) was 0.902. The relative viability (Dabrafenib + Alpelisib; first compound 0.3 µM) was 0.771, the relative viability (VX-702 + Pemetrexed; first compound 0.02 µM) was 0.365 and the relative viability (VX-702 + Pemetrexed; first compound 0.2 µM) was 0.311. For the same cell line, the relative viability (VX-702 + Pemetrexed; first compound 0.6325 µM) was 0.284 and the relative viability (VX-702 + Pemetrexed; first compound 2 µM) was 0.309.
Cell Line LC-2-ad has a relative viability (Dabrafenib; 0.003 µM) of 0.79, a relative viability (Dabrafenib; 0.009487 µM) of 1.08 and a relative viability (Dabrafenib; 0.03 µM) of 1. The relative viability (Dabrafenib; 0.09487 µM) was 0.892, the relative viability (Dabrafenib; 0.3 µM) was 1.06 and the relative viability (VX-702; 0.02 µM) was 1.04. It also gave a relative viability (VX-702; 0.2 µM) of 1.01, a relative viability (VX-702; 0.6325 µM) of 1.05 and a relative viability (VX-702; 2 µM) of 1.06. The relative viability (Dabrafenib + Alpelisib; first compound 0.003 µM) was 0.907, the relative viability (Dabrafenib + Alpelisib; first compound 0.009487 µM) was 0.824 and the relative viability (Dabrafenib + Alpelisib; first compound 0.03 µM) was 0.891. It also gave a relative viability (Dabrafenib + Alpelisib; first compound 0.09487 µM) of 0.835, a relative viability (Dabrafenib + Alpelisib; first compound 0.3 µM) of 0.882 and a relative viability (VX-702 + Pemetrexed; first compound 0.02 µM) of 0.275. The relative viability (VX-702 + Pemetrexed; first compound 0.2 µM) was 0.271, the relative viability (VX-702 + Pemetrexed; first compound 0.6325 µM) was 0.269 and the relative viability (VX-702 + Pemetrexed; first compound 2 µM) was 0.274.
In the case of LCLC-97TM1, the relative viability (Dabrafenib; 0.009487 µM) is reported as 0.914, the relative viability (Dabrafenib; 0.03 µM) is reported as 1.01 and the relative viability (Dabrafenib; 0.09487 µM) is reported as 0.508. For the same cell line, the relative viability (Dabrafenib; 0.3 µM) was 0.756, the relative viability (VX-702; 0.02 µM) was 0.938 and the relative viability (VX-702; 0.2 µM) was 0.982. It also gave a relative viability (VX-702; 0.6325 µM) of 0.996, a relative viability (VX-702; 2 µM) of 0.937 and a relative viability (Dabrafenib + Alpelisib; first compound 0.009487 µM) of 0.228. It also gave a relative viability (Dabrafenib + Alpelisib; first compound 0.03 µM) of 0.303, a relative viability (Dabrafenib + Alpelisib; first compound 0.3 µM) of 0.258 and a relative viability (VX-702 + Pemetrexed; first compound 0.02 µM) of 0.167. It also gave a relative viability (VX-702 + Pemetrexed; first compound 0.2 µM) of 0.171, a relative viability (VX-702 + Pemetrexed; first compound 0.6325 µM) of 0.141 and a relative viability (VX-702 + Pemetrexed; first compound 2 µM) of 0.193.
LCLC-103H gave a relative viability (Dabrafenib; 0.003 µM) of 0.883, a relative viability (Dabrafenib; 0.009487 µM) of 1.11 and a relative viability (Dabrafenib; 0.03 µM) of 0.919. It also gave a relative viability (Dabrafenib; 0.09487 µM) of 1.01, a relative viability (Dabrafenib; 0.3 µM) of 1.07 and a relative viability (VX-702; 0.02 µM) of 0.98. It also gave a relative viability (VX-702; 0.2 µM) of 0.999, a relative viability (VX-702; 0.6325 µM) of 0.952 and a relative viability (VX-702; 2 µM) of 1.13. For the same cell line, the relative viability (Dabrafenib + Alpelisib; first compound 0.003 µM) was 0.726, the relative viability (Dabrafenib + Alpelisib; first compound 0.009487 µM) was 1.16 and the relative viability (Dabrafenib + Alpelisib; first compound 0.03 µM) was 0.912. For the same cell line, the relative viability (Dabrafenib + Alpelisib; first compound 0.09487 µM) was 0.853, the relative viability (Dabrafenib + Alpelisib; first compound 0.3 µM) was 0.972 and the relative viability (VX-702 + Pemetrexed; first compound 0.02 µM) was 0.503. It also gave a relative viability (VX-702 + Pemetrexed; first compound 0.2 µM) of 0.445, a relative viability (VX-702 + Pemetrexed; first compound 0.6325 µM) of 0.469 and a relative viability (VX-702 + Pemetrexed; first compound 2 µM) of 0.469.
Work on LK-2 yielded a relative viability (Dabrafenib; 0.003 µM) of 0.975, a relative viability (Dabrafenib; 0.009487 µM) of 1.04 and a relative viability (Dabrafenib; 0.09487 µM) of 0.913. For the same cell line, the relative viability (Dabrafenib; 0.3 µM) was 1.05, the relative viability (VX-702; 0.02 µM) was 1.02 and the relative viability (VX-702; 0.2 µM) was 0.84. It also gave a relative viability (VX-702; 0.6325 µM) of 0.811, a relative viability (VX-702; 2 µM) of 1.04 and a relative viability (Dabrafenib + Alpelisib; first compound 0.003 µM) of 1.05. The relative viability (Dabrafenib + Alpelisib; first compound 0.009487 µM) was 1.14, the relative viability (Dabrafenib + Alpelisib; first compound 0.09487 µM) was 1.35 and the relative viability (Dabrafenib + Alpelisib; first compound 0.3 µM) was 1.13. The relative viability (VX-702 + Pemetrexed; first compound 0.02 µM) was 0.277, the relative viability (VX-702 + Pemetrexed; first compound 0.2 µM) was 0.272 and the relative viability (VX-702 + Pemetrexed; first compound 0.6325 µM) was 0.236. It also gave a relative viability (VX-702 + Pemetrexed; first compound 2 µM) of 0.247.
Work on LOU-NH91 yielded a relative viability (Dabrafenib; 0.009487 µM) of 1.07, a relative viability (Dabrafenib; 0.03 µM) of 0.905 and a relative viability (Dabrafenib; 0.09487 µM) of 0.935. It also gave a relative viability (Dabrafenib; 0.3 µM) of 1.09, a relative viability (VX-702; 0.02 µM) of 1 and a relative viability (VX-702; 0.2 µM) of 0.836. It also gave a relative viability (VX-702; 0.6325 µM) of 0.971, a relative viability (VX-702; 2 µM) of 0.783 and a relative viability (Dabrafenib + Alpelisib; first compound 0.009487 µM) of 0.803. It also gave a relative viability (Dabrafenib + Alpelisib; first compound 0.03 µM) of 0.652, a relative viability (Dabrafenib + Alpelisib; first compound 0.09487 µM) of 0.7 and a relative viability (Dabrafenib + Alpelisib; first compound 0.3 µM) of 0.743. The relative viability (VX-702 + Pemetrexed; first compound 0.02 µM) was 0.383, the relative viability (VX-702 + Pemetrexed; first compound 0.2 µM) was 0.366 and the relative viability (VX-702 + Pemetrexed; first compound 0.6325 µM) was 0.385. The relative viability (VX-702 + Pemetrexed; first compound 2 µM) was 0.412.
For LU99A, the relative viability (Dabrafenib; 0.003 µM) was 0.968, the relative viability (Dabrafenib; 0.009487 µM) was 1.06 and the relative viability (Dabrafenib; 0.03 µM) was 0.917. The relative viability (Dabrafenib; 0.09487 µM) was 0.88, the relative viability (Dabrafenib; 0.3 µM) was 0.801 and the relative viability (VX-702; 0.02 µM) was 1.05. It also gave a relative viability (VX-702; 0.2 µM) of 0.912, a relative viability (VX-702; 0.6325 µM) of 1.02 and a relative viability (VX-702; 2 µM) of 0.781. For the same cell line, the relative viability (Dabrafenib + Alpelisib; first compound 0.003 µM) was 0.563, the relative viability (Dabrafenib + Alpelisib; first compound 0.009487 µM) was 0.439 and the relative viability (Dabrafenib + Alpelisib; first compound 0.03 µM) was 0.48. For the same cell line, the relative viability (Dabrafenib + Alpelisib; first compound 0.09487 µM) was 0.502, the relative viability (Dabrafenib + Alpelisib; first compound 0.3 µM) was 0.515 and the relative viability (VX-702 + Pemetrexed; first compound 0.02 µM) was 0.173. For the same cell line, the relative viability (VX-702 + Pemetrexed; first compound 0.2 µM) was 0.164, the relative viability (VX-702 + Pemetrexed; first compound 0.6325 µM) was 0.184 and the relative viability (VX-702 + Pemetrexed; first compound 2 µM) was 0.16.
